Assay results reported in patent US20240139167A1, “LYSOSOME-ASSOCIATED MEMBRANE PROTEIN TARGETING COMPOUNDS AND USES THEREOF” (HADASIT MEDICAL RESEARCH SERVICES AND DEVELOPMENT LTD., priority 2021, published 2024).

Columns and labels:
APBD cells = experiment: Proteomics (nano LC-MS/MS, LFQ); type: cell-based, human
Experimental: Sample preparation for MS analysis. Cell lysates in RIPA buffer containing protease inhibitors were clarified by centrifugation and […] of protein was used for protein precipitation by the chloroform/methanol method. The precipitated proteins were solubilized in 100 μl of 8 M urea, 10 mM DTT, 25 mM Tris-HCl pH 8.0 and incubated for 30 min at 22 ° C. Iodoacetamide (55 mM) was added, and samples were incubated for 30 min (22 ° C., in the dark), followed by addition of DTT (10 mM). Fifty μl of the samples was transferred into a new tube, diluted by the addition of 7 volumes of 25 mM Tris-HCl pH 8.0 and sequencing-grade modified Trypsin (Promega Corp., Madison, WI) was added (0.35 μg/sample) followed by incubation overnight at 37° C. with gentle agitation. The samples were acidified by addition of 0.2% formic acid and desalted on C18 home-made Stage tips. Peptide concentration was determined by Absorbance at 280 nm and 0.75 μg of peptides were injected into the mass spectrometer.
Nano LC-MS/MS analysis. MS analysis was performed using a Q Exactive-HF mass spectrometer (Thermo Fisher Scientific, Waltham, MA USA) coupled on-line to a nanoflow UHPLC instrument, Ultimate 3000 Dionex (Thermo Fisher Scientific, Waltham, MA USA). Peptides dissolved in 0.1% formic acid were separated without a trap column over a 120 min acetonitrile gradient run at a flow rate of 0.3 μl/min on a reverse phase 25-cm-long C18 column (75 μm ID, 2 μm, 100 Å, Thermo PepMapRSLC). The instrument settings were as previously described. Survey scans (300-1,650 m/z, target value 3E6 charges, maximum ion injection time 20 ms) were acquired and followed by higher energy collisional dissociation (HCD)-based fragmentation (normalized collision energy 27). A resolution of 60,000 was used for survey scans and up to 15 dynamically chosen most abundant precursor ions, with “peptide preferable” profile were fragmented (isolation window 1.6 m/z). The MS/MS scans were acquired at a resolution of 15,000 (target value 1E5 charges, maximum ion injection times 25 ms). Dynamic exclusion was 20 sec. Data were acquired using Xcalibur software (Thermo Scientific). To avoid a carryover, the column was washed with 80% acetonitrile, 0.1% formic acid for 25 min between samples.
MS data analysis. Mass spectra data were processed using the MaxQuant computational platform, version 1.6.14.0. Peak lists were searched against the Uniprot human FASTA sequence database from May 19, 2020, containing 49,974 entries. […] Relative protein quantification in MaxQuant was performed using the label-free quantification (LFQ) algorithm. […]
To validate the imaging-based analysis of the cell features modulated by the diseased state and by Compound 1, the inventors analyzed the effect of the disease and the treatment on protein expression. […]

Gbe^ys/ys mice = experiment: Histological PG (PAS after diastase) and biochemical glycogen determination in tissues; type: in vivo
Text: FIGS. 2A-2C include images and graphs of histopathological effects of Compound 1 and its pharmacokinetics: right panel present images of indicated tissues of sacrificed mice and stained for PG (arrows) with PAS following treatment with diastase; left panel, presents bar graphs quantifying PAS staining, based on analysis of 4 sections from each tissue in n=2 wild type, n=7 Gbe^ys/ys vehicle-treated, and n=9 Compound 1-treated mice (2A); bar graph quantifying total glycogen in the respective tissues (2B); graph of Compound 1pharmacokinetics (2C); 9 months old Gbe^ys/ys mice were SC-injected with 150 μL of Compound 1 at 250 mg/kg. Mice were sacrificed 30-, 60-, 90-, and 210-min post injection and the indicated tissues were removed, as well as 200 μL of serum drawn. […] Shown are means and SEM of results obtained from n=3 mice at each time point.
Brain, heart, muscle, nerve fascicles (peripheral nerves), and liver tissues from wt and Compound 1 and vehicle treated Gbe^ys/ys animals were separated to characterize the histopathological effects of Compound 1. Tissues were extracted, fixed, embedded in paraffin, and sectioned. After deparaffinization, sections were treated for 5 min with 0.5% diastase to digest non-polyglucosan glycogen, leaving behind polyglucosan. Sections were then washed, stained for polyglucosan with PAS and counterstained with hematoxylin, and analyzed by light microscopy, all as previously described. […] Following digestion, total glycogen was determined based on the glucose content using the Sigma GAGO20 kit.
This information is important for determining whether the expected mode of action of Compound 1 discovered ex vivo -reduction of polyglucosan levels in fibroblasts — also takes place in vivo and if so in which tissues. […] Following diastase treatment to digest non-polyglucosan glycogen, leaving behind polyglucosan, sections were stained for polyglucosan with periodic acid-Schiff s (PAS) reagent, counterstained with hematoxylin and analyzed by light microscopy.

[1] = PAS after diastase, sacrifice at 9.5 months

COCCN(Cc1sccc1C)C(=O)c1cc(C)nc(O)c1 [Compound 1]
number of proteins down-modulated by APBD and up-modulated by compound (APBD cells): 49 | number of proteins up-modulated by APBD and down-modulated by compound (APBD cells): 39 | share of all proteins modified (APBD cells; glycogen overladen (48 h starvation/24 h Gluc)): 1.3% | share of all proteins modified (APBD cells; starved (48 h starvation)): 1.7% | muscle polyglucosans (Gbe^ys/ys mice; [1]): no apparent effect | polyglucosan levels in brain, liver, heart, and peripheral nerve (Gbe^ys/ys mice; [1]): significant reduction in polyglucosan levels | total glycogen levels, determined biochemically (Gbe^ys/ys mice; same tissues): correspondingly affected
